The supplement of paper PMC4862054

What was measured:
Experiment in all cases: normalised viability (% of control), CellTiter-Blue; higher = more viable cells (about 100 = DMSO control)
Conditions in all cases: incubation time: 72 h
CAL-148 [1] = test system: CAL-148
Method: (§1)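 DSRT, CellTiter-Blue viability, 72 h incubation. Signal is normalised to DMSO and benzethonium chloride controls. Value is the normalised response at dose 8.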

DU-4475 [2] = test system: DU-4475
Method: as §1

CAL-85-1 [3] = test system: CAL-85-1
Method: as §1

CAL-51 [4] = test system: CAL-51
Method: as §1

MDA-MB-453 [5] = test system: MDA-MB-453
Method: as §1

HDQ-P1 [6] = test system: HDQ-P1
Method: as §1

MDA-MB-231 = test system: MDA-MB-231
In short: (§2)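 384-well plates were pre-loaded with compound in 5 µl medium before 20 µl of breast cancer cell suspension was seeded. Following 72 h incubation, 2.5 µl CellTiter-Blue reagent was added for 2 h at 37 °C. Fluorescence was read at 560/590 nm and plates were normalised to vehicle (100) and a positive kill control (0), checked by Z'-factor. Normalised viability is reported at a single listed concentration of the series.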

CAL-148 [7] = test system: CAL-148; remark: listed apart in the source
In short: as §2

MDA-MB-436 = test system: MDA-MB-436
In short: as §2

CAL-120 = test system: CAL-120
In short: as §2

BT-474 = test system: BT-474
In short: as §2

HCC1143 = test system: HCC1143
In short: as §2

MDA-MB-468 = test system: MDA-MB-468
In short: as §2

BT-549 = test system: BT-549
In short: as §2

HCC1599 = test system: HCC1599
In short: as §2

SK-BR-3 = test system: SK-BR-3
In short: as §2

DU-4475 [8] = test system: DU-4475; remark: listed apart in the source
In short: as §2

CAL-85-1 [9] = test system: CAL-85-1; remark: listed apart in the source
In short: as §2

MFM-223 = test system: MFM-223
In short: as §2

CAL-51 [10] = test system: CAL-51; remark: listed apart in the source
In short: as §2

MDA-MB-453 [11] = test system: MDA-MB-453; remark: listed apart in the source
In short: as §2

Hs578T = test system: Hs578T
In short: as §2

HDQ-P1 [12] = test system: HDQ-P1; remark: listed apart in the source
In short: as §2

CAL-148 [13] = test system: CAL-148; remark: listed apart in the source
Method: (§3)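 DSRT, CellTiter-Blue viability, 72 h incubation. Signal is normalised to DMSO and benzethonium chloride controls. Value is the normalised response at dose 6.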

CAL-85-1 [14] = test system: CAL-85-1; remark: listed apart in the source
Method: as §3

MDA-MB-453 [15] = test system: MDA-MB-453; remark: listed apart in the source
Method: as §3

## Cc1cnc(NC(=O)Nc2cc(Br)c(C)cc2OC[C@@H]2CNCCO2)cn1
CAL-148 [1]; 300 nM
  normalised viability: 107%
DU-4475 [2]; 300 nM
  normalised viability: 102%
CAL-85-1 [3]; 300 nM
  normalised viability: 88.1%
CAL-51 [4]; 300 nM
  normalised viability: 103%
MDA-MB-453 [5]; 300 nM
  normalised viability: 93.3%
HDQ-P1 [6]; 300 nM
  normalised viability: 96.2%
MDA-MB-231; 1 nM
  normalised viability: 106%
MDA-MB-231; 100 nM
  normalised viability: 103%
MDA-MB-231; 1000 nM
  normalised viability: 94%
CAL-148 [7]; 0.3 nM
  normalised viability: 99.2%
CAL-148 [7]; 3 nM
  normalised viability: 90%
CAL-148 [7]; 10 nM
  normalised viability: 96.3%
MDA-MB-436; 1 nM
  normalised viability: 104%
MDA-MB-436; 100 nM
  normalised viability: 83.4%
MDA-MB-436; 1000 nM
  normalised viability: 67.8%
CAL-120; 1 nM
  normalised viability: 88.5%
CAL-120; 100 nM
  normalised viability: 96.4%
CAL-120; 1000 nM
  normalised viability: 90.1%
BT-474; 1 nM
  normalised viability: 102%
BT-474; 100 nM
  normalised viability: 107%
BT-474; 1000 nM
  normalised viability: 107%
HCC1143; 1 nM
  normalised viability: 97.9%
HCC1143; 100 nM
  normalised viability: 90%
HCC1143; 1000 nM
  normalised viability: 79.3%
MDA-MB-468; 1 nM
  normalised viability: 106%
MDA-MB-468; 100 nM
  normalised viability: 110%
MDA-MB-468; 1000 nM
  normalised viability: 56.6%
BT-549; 1 nM
  normalised viability: 90.9%
BT-549; 100 nM
  normalised viability: 96%
BT-549; 1000 nM
  normalised viability: 92%
HCC1599; 1 nM
  normalised viability: 112%
HCC1599; 100 nM
  normalised viability: 95.7%
HCC1599; 1000 nM
  normalised viability: 65.7%
SK-BR-3; 1 nM
  normalised viability: 98.9%
SK-BR-3; 100 nM
  normalised viability: 101%
SK-BR-3; 1000 nM
  normalised viability: 30.1%
DU-4475 [8]; 0.3 nM
  normalised viability: 116%
DU-4475 [8]; 3 nM
  normalised viability: 94.6%
DU-4475 [8]; 10 nM
  normalised viability: 106%
CAL-85-1 [9]; 0.3 nM
  normalised viability: 90.6%
CAL-85-1 [9]; 3 nM
  normalised viability: 89.4%
CAL-85-1 [9]; 10 nM
  normalised viability: 106%
MFM-223; 1 nM
  normalised viability: 104%
MFM-223; 100 nM
  normalised viability: 98.8%
MFM-223; 1000 nM
  normalised viability: 79.5%
CAL-51 [10]; 0.3 nM
  normalised viability: 97.8%
CAL-51 [10]; 3 nM
  normalised viability: 85.7%
CAL-51 [10]; 10 nM
  normalised viability: 93.1%
MDA-MB-453 [11]; 0.3 nM
  normalised viability: 109%
MDA-MB-453 [11]; 3 nM
  normalised viability: 111%
MDA-MB-453 [11]; 10 nM
  normalised viability: 105%
Hs578T; 1 nM
  normalised viability: 92.6%
Hs578T; 100 nM
  normalised viability: 102%
Hs578T; 1000 nM
  normalised viability: 35%
HDQ-P1 [12]; 0.3 nM
  normalised viability: 104%
HDQ-P1 [12]; 3 nM
  normalised viability: 88.4%
HDQ-P1 [12]; 10 nM
  normalised viability: 68.7%
CAL-148 [13]; 30 nM
  normalised viability: 91.7%
CAL-85-1 [14]; 30 nM
  normalised viability: 92%
MDA-MB-453 [15]; 30 nM
  normalised viability: 94.3%

## NCCCNCCSP(=O)(O)O [Amifostine]
CAL-148 [1]; 3000 nM
  normalised viability: 95.1%
DU-4475 [2]; 3000 nM
  normalised viability: 110%
CAL-85-1 [3]; 3000 nM
  normalised viability: 91.6%
CAL-51 [4]; 3000 nM
  normalised viability: 107%
MDA-MB-453 [5]; 3000 nM
  normalised viability: 96.6%
HDQ-P1 [6]; 3000 nM
  normalised viability: 94.8%
MDA-MB-231; 10 nM
  normalised viability: 86.7%
MDA-MB-231; 1000 nM
  normalised viability: 101%
MDA-MB-231; 10000 nM
  normalised viability: 86.5%
CAL-148 [7]; 3 nM
  normalised viability: 97.6%
CAL-148 [7]; 30 nM
  normalised viability: 93.9%
CAL-148 [7]; 100 nM
  normalised viability: 96.5%
MDA-MB-436; 10 nM
  normalised viability: 135%
MDA-MB-436; 1000 nM
  normalised viability: 91.8%
MDA-MB-436; 10000 nM
  normalised viability: 86.2%
CAL-120; 10 nM
  normalised viability: 71.9%
CAL-120; 1000 nM
  normalised viability: 84.1%
CAL-120; 10000 nM
  normalised viability: 82.1%
BT-474; 10 nM
  normalised viability: 94.2%
BT-474; 1000 nM
  normalised viability: 94.5%
BT-474; 10000 nM
  normalised viability: 111%
HCC1143; 10 nM
  normalised viability: 79.2%
HCC1143; 1000 nM
  normalised viability: 84%
HCC1143; 10000 nM
  normalised viability: 75.2%
MDA-MB-468; 10 nM
  normalised viability: 102%
MDA-MB-468; 1000 nM
  normalised viability: 93%
MDA-MB-468; 10000 nM
  normalised viability: 91.3%
BT-549; 10 nM
  normalised viability: 81.4%
BT-549; 1000 nM
  normalised viability: 96.6%
BT-549; 10000 nM
  normalised viability: 93.3%
HCC1599; 10 nM
  normalised viability: 102%
HCC1599; 1000 nM
  normalised viability: 72.4%
HCC1599; 10000 nM
  normalised viability: 81.7%
SK-BR-3; 10 nM
  normalised viability: 81.9%
SK-BR-3; 1000 nM
  normalised viability: 92.6%
SK-BR-3; 10000 nM
  normalised viability: 93.3%
DU-4475 [8]; 3 nM
  normalised viability: 85.9%
DU-4475 [8]; 30 nM
  normalised viability: 93.9%
DU-4475 [8]; 100 nM
  normalised viability: 86.4%
CAL-85-1 [9]; 3 nM
  normalised viability: 97.5%
CAL-85-1 [9]; 30 nM
  normalised viability: 88%
CAL-85-1 [9]; 100 nM
  normalised viability: 87.2%
MFM-223; 10 nM
  normalised viability: 81.8%
MFM-223; 1000 nM
  normalised viability: 82.1%
MFM-223; 10000 nM
  normalised viability: 96.4%
CAL-51 [10]; 3 nM
  normalised viability: 113%
CAL-51 [10]; 30 nM
  normalised viability: 106%
CAL-51 [10]; 100 nM
  normalised viability: 107%
MDA-MB-453 [11]; 3 nM
  normalised viability: 102%
MDA-MB-453 [11]; 30 nM
  normalised viability: 81%
MDA-MB-453 [11]; 100 nM
  normalised viability: 86.7%
Hs578T; 10 nM
  normalised viability: 101%
Hs578T; 1000 nM
  normalised viability: 104%
Hs578T; 10000 nM
  normalised viability: 95.6%
HDQ-P1 [12]; 3 nM
  normalised viability: 101%
HDQ-P1 [12]; 30 nM
  normalised viability: 95.5%
HDQ-P1 [12]; 100 nM
  normalised viability: 84.8%
CAL-148 [13]; 300 nM
  normalised viability: 95.2%
CAL-85-1 [14]; 300 nM
  normalised viability: 93.8%
MDA-MB-453 [15]; 300 nM
  normalised viability: 105%
